In patent publication US20050130881A1, “Single amino acid based compounds for counteracting effects of reactive oxygen species and free radicals” (priority 2001, published 2005):

Assays:
SOD [1] = experiment: Upregulation of SOD in primary rat cortical cultures (Western immunoblot, laser densitometry); type: cell-based; conditions: for Upregulation (fold increase) SOD: 5 hours, relative to untreated control cultures
Method: (§1) Primary rat cortical cultures were obtained by growing newborn rat brain cortical cells in Delbecco's modified Eagle medium supplemented with 100 units/ml of penicillin G, 100 μg/ml of streptomycin, and 10% fetal calf serum. The cells were isolated from the E-21 cortex of rat brain, plated at a density of 1×10^5 per ml and grown to confluence within four to five days in an atmosphere containing air and 5% CO2 at 37° C. as described in Cornell-Bell et al., Science, 247: 470-473 (1990) and Cell Calcium, 12: 185-204 (1991). Cultures were grown in 20 ml flasks as a monolayer and then exposed to various concentrations of L-aspartic acid for studies of the effect on upregulation of the gene for SOD. Cultures of the rat brain cortical cells were incubated with 0.00, 0.01, 0.13, 1.30, and 13.30 μg/ml L-aspartic acid for durations of 5 hours. Control cultures were treated in the same manner, but were not incubated with L-aspartic acid.
(§2) Cytoplasmic proteins were isolated according to published methods (Adams et al., J. Leukoc. Biol., 62: 865-873 (1997)). The cell cultures were washed once in phosphate buffer saline (PBS) containing 20 mM EDTA and then suspended in 250 μl of freshly prepared lysis buffer (20 mM Hepes, pH 7.9, 10 mM KCl, 300 mM NaCl, 1 mM MgCl2, 0.1% Triton X-100 nonionic detergent, 20% glycerol, 0.5 mM dithiothreitol (DTT), freshly supplemented with inhibitors as described in Adams et al., […]., 77: 221-233 (2000)). The suspensions were then incubated for at least 10 minutes on ice to lyse cells and then centrifuged (14,000×g for 5 minutes at 4° C.) to pellet cell debris. The supernatant cytoplasmic fractions were removed and stored as aliquots at −80° C. for analysis.
(§3) The cytoplasmic proteins were separated by SDS-PAGE using 5 μg/lane on the gels for analysis by Western immunoblots. […] SOD expression was detected in the Western blots using anti-SOD rabbit polyclonal antibody (Rockland, Inc., Gilbertville, Pa.). The Western blots were also analyzed by laser densitometry to quantify SOD protein upregulation. The control in these experiments was an identical culture flask, which was treated only with vehicle (i.e., buffer, no L-aspartic acid).

CAT [2] = experiment: Upregulation of CAT in primary rat cortical cultures (Western immunoblot, laser densitometry); type: cell-based; conditions: for Upregulation (fold increase) CAT: 5 hours, relative to untreated control cultures
Method: [The source words this procedure for another target and reports this target under the same test.] as §1, §2, §3

SOD [3] = experiment: In vivo upregulation of SOD in rat brain (Western immunoblot); design: species or system Sprague-Dawley rats; conditions: for Fold Upregulation of SOD: relative to vehicle
Method: (§4) In vivo experiments were carried out in Sprague-Dawley rats (300-325 g) with solutions of L-aspartic acid. The animals were injected intravenously (iv) via the tail vein with L-aspartic acid. Each animal received one injection of L-aspartic acid in normal saline at total dose equivalent of 0.00, 0.75, 1.50, 3.00, and 6.00 mg L-aspartic acid/kg body weight or orally by gavage at a dose equivalent of 0.00 or 60.0 mg/kg body weight. The animals were sacrificed by decapitation at 6 hours post injection and dissected to isolate the brain organs, which were frozen at −70° C. for subsequent analysis by Western immunoblots.
(§5) Each brain tissue was thawed and homogenized in a Down's homogenizer using ten volumes of homogenizer buffer (see, Adams et al., […], 77: 221-233 (2000); buffer as described in Adams et al., J. Leukoc. Biol., 62: 865-875 ([…])) to obtain a crude cytoplasmic fraction. The brain tissue homogenates were centrifuged (14,000×g for 5 minutes at 4° C.) to yield the supernatant purified cytoplasmic protein fractions for Western immunoblot analysis as described in Adams et al. (J. Cell. Biochem., 77: 221-233 (2000)). A 10 μg sample of each protein fraction was then separated by SDS polyacrylamide gel electrophoresis (SDS-PAGE) and analyzed for SOD and CAT content by Western blot assay as above.
(§6) Control for measurement of unstimulated levels of SOD were obtained from vehicle-only (i.e., no L aspartic acid), injected or gavaged rats that were sacrificed at 6 hours post injection. […] Standard quantities of each cytoplasmic fraction (10 μg) were loaded on a lane of a gel for electrophoretic separation and Western immunoblot analysis (Adams et al., J. Cell. Biochem., 77: 221-233 (2000)). The stained gels were photographed and scanned by laser densitometry to quantify intensities in comparison to enzyme levels for control vehicle treated rats.
(§7) The data are expressed as a fold increase relative to control animals that received vehicle only. Intravenous (i.v.) injections were administered as 0.3 ml in normal saline during five minutes. Oral doses were administered as a solution in 1 ml saline by gavage.

CAT [4] = experiment: In vivo upregulation of CAT in rat brain (Western immunoblot); design: species or system Sprague-Dawley rats; conditions: for Fold Upregulation of CAT: relative to vehicle
Method: as §4, §5, §6, §7

Sprague-Dawley rats = experiment: In vivo observations of toxicity and behaviour after dosing; conditions: 60 mg/Kg oral, rat
Method: as §4
At 6 mg/Kg, upregulation of CAT became higher than SOD. The compound is also active orally, but in that case, a dose of 60 mg/Kg must be used in the rat to see an effect.

[5] = tested on: primary rat cortical cultures; experiment: Tissue culture properties of primary rat cortical cultures; type: cell-based; conditions: low doses of up to 10 ng/ml in culture
[6] = 0.75 mg/kg i.v., rat brain, 6 hours post injection
[7] = 1.50 mg/kg i.v., rat brain, 6 hours post injection
[8] = 3.00 mg/kg i.v., rat brain, 6 hours post injection
[9] = 6.00 mg/kg i.v., rat brain, 6 hours post injection
[10] = 60.00 mg/kg oral (gavage), rat brain, 6 hours

## N[C@@H](CC(=O)O)C(=O)O [Aspartic Acid, L-aspartic acid]
SOD [1]; 0.01 μg/ml
  Upregulation (fold increase) SOD: 1.0 fold increase
SOD [1]; 130 ng/ml
  SOD upregulation: upregulation of SOD
SOD [1]; 0.13 μg/ml
  Upregulation (fold increase) SOD: 1.6 fold increase
SOD [1]; 1.3 μg/ml
  SOD upregulation: upregulated
SOD [1]; 1.30 μg/ml
  Upregulation (fold increase) SOD: 2.1 fold increase
SOD [1]; 13.3 μg/ml
  SOD increase by Western blot: substantial increase
SOD [1]; 13.30 μg/ml
  Upregulation (fold increase) SOD: 3.5 fold increase
SOD [1]; low doses of up to 10 ng/ml in culture
  effect on SOD upregulation: no effect
CAT [2]; 0.01 μg/ml
  Upregulation (fold increase) CAT: 1.0 fold increase
CAT [2]; 0.13 μg/ml
  Upregulation (fold increase) CAT: 1.0 fold increase
CAT [2]; 1.3 μg/ml
  CAT upregulation: upregulated
CAT [2]; 1.30 μg/ml
  Upregulation (fold increase) CAT: 2.3 fold increase
CAT [2]; 13.30 μg/ml
  Upregulation (fold increase) CAT: 3.7 fold increase
SOD [3]; [6]
  Fold Upregulation of SOD: 1.0 fold
SOD [3]; [7]
  Fold Upregulation of SOD: 1.0 fold
SOD [3]; [8]
  Fold Upregulation of SOD: 1.3 fold
SOD [3]; [9]
  Fold Upregulation of SOD: 1.3 fold
SOD [3]; [10]
  Fold Upregulation of SOD: 2.9 fold
SOD [3]; i.v., rat brain
  i.v. dose that must be injected before upregulation of SOD is observed: 3 mg/kg
SOD [3]; oral, rat
  oral dose that must be used to see an effect (SOD upregulation): 60 mg/kg
CAT [4]; [6]
  Fold Upregulation of CAT: 1.0 fold
CAT [4]; [7]
  Fold Upregulation of CAT: 1.0 fold
CAT [4]; [8]
  Fold Upregulation of CAT: 1.2 fold
CAT [4]; [9]
  Fold Upregulation of CAT: 2.5 fold
CAT [4]; [10]
  Fold Upregulation of CAT: 3.5 fold
CAT [4]; i.v., rat brain
  i.v. dose that must be injected before upregulation of CAT is observed: 3 mg/kg
CAT [4]; oral, rat
  oral dose that must be used to see an effect (CAT upregulation): 60 mg/kg
Sprague-Dawley rats
  toxic effect: no toxic effect
[5]
  effect on any aspects of tissue culture properties: no effect
